This is an account of results in US20120070390A1, “Topical drug delivery system with dual carriers” (priority 2010, published 2012).

Where two headings read alike, the source gives them in different places.

One data set deals with MRSA. Description: Petri dish zone of inhibition test. Type of data set: cell-based, Methicillin Resistant Staph Aureus. The conditions noted are these: FIG. 17, identical size drops (diameters of ZOA).
Another data set deals with HL-60 cells. As to conditions: cited from earlier work; for subsequent retinoid-induced TGM2 expression after priming by pretreatment: HL-60 cells, short exposure.
Data set [1] concerns mouse embryonic stem cells and embryoid bodies. As to conditions: cited from earlier work.
The next data set relates to Staph aureus. Kind of data set: Petri dish zone of inhibition comparison with control agents. The format is cell-based, Staphylococcus aureus. The conditions noted are these: FIG. 16, identical size drops (diameters of ZOA).
The nature of data set [2]: Study I: vancomycin peaks and troughs in the patient. Type of data set: in vivo, human. As to conditions: 1.5 g BID, Q12, seven doses; ranges not noted. As to the method: Fri 2/5: Detection of a Strep-A strain, confirmed by culture study. Shifted from gentamycin to vancomycin 1.5 g BID, Q12. Patient was kept on this dosing regimen until 2/8 (date of discharge from hospital).
Mon 2/8: Patient received the last of seven doses of vancomycin. Throughout all of this their peaks (within 1 hour of receiving vancomycin) and troughs (before receiving vancomycin) were normal (ranges not noted here). Patient was discharged from the hospital on this date.

Data set [3] concerns MRSA infection and Grade I diabetic ulcer of the left hallux with cellulitus. Description: Study III: human field study, diabetic foot lesion with MRSA cellulitus. Type of data set: in vivo. As to conditions: IV, 8 days following admission, before the invention was used.
Description: In this embodiment, the additional ingredient to hasten a third therapeutic tissue healing effect was added. This embodiment used vitamin D in a small but medically efficacious amount.
For a further data set, the system named is Enterococcus faecalis. Kind of data set: Petri dish zone of inhibition comparison with control agents. The format is cell-based. The conditions noted are these: FIG. 25, identical size drops.

`CO[C@@]1(NC(=O)Cc2cccs2)C(=O)N2C(C(=O)O)=C(COC(N)=O)CS[C@@H]21` [Cefoxicillin]: the “zones of inhibition of control agents compared with the formulations of the invention” value with MRSA was “considerably reduced zones of inhibition”.

As to `C[S+](C)[O-]` [DMSO, dimethyl sulfoxide], the “amount at which desired cellular responses occurred” value in the data set on HL-60 cells (DMSO) is reported as “less than 2%”. In the data set with HL-60 cells, the “subsequent retinoid-induced TGM2 expression after priming by pretreatment” value is “increases subsequent retinoid-induced TGM2 expression”. In addition, in data set [1], the “mRNA and protein expression in epigenetic profiles” value was “upregulation of mRNA and protein expression”.

On to `CC[C@H]1OC(=O)[C@H](C)[C@@H](O[C@H]2C[C@@](C)(OC)[C@@H](O)[C@H](C)O2)[C@H](C)[C@@H](O[C@@H]2O[C@H](C)C[C@H](N(C)C)[C@H]2O)[C@](C)(O)C[C@@H](C)C(=O)[C@H](C)[C@@H](O)[C@]1(C)O` [Erythromycin], for which the “zones of inhibition of control agents compared with the formulations of the invention” value in the data set with MRSA and in the data set with Staph aureus was “considerably reduced zones of inhibition” each time.

As to `CN[C@H](CC(C)C)C(=O)N[C@H]1C(=O)N[C@@H](CC(N)=O)C(=O)N[C@H]2C(=O)N[C@H]3C(=O)N[C@H](C(=O)N[C@H](C(=O)O)c4cc(O)cc(O)c4-c4cc3ccc4O)[C@H](O)c3ccc(c(Cl)c3)Oc3cc2cc(c3O[C@@H]2O[C@H](CO)[C@@H](O)[C@H](O)[C@H]2O[C@H]2C[C@](C)(N)[C@H](O)[C@H](C)O2)Oc2ccc(cc2Cl)[C@H]1O` [Vancomycin], the “peaks (within 1 hour of receiving) and troughs (before receiving)” value in data set [2] is listed as “normal”. Moreover, the “patient response to treatment” value in data set [3] is on record as “did not respond”. Moreover, in the data set with Enterococcus faecalis, the “zones of inhibition of control agents compared with the formulations of the invention” value is “considerably reduced zones of inhibition”.

As to vitamin D, the “subsequent retinoid-induced TGM2 expression after priming by pretreatment” value in the data set on HL-60 cells is “increases subsequent retinoid-induced TGM2 expression”. Moreover, the “amount at which desired cellular responses occurred” value in the data set with HL-60 cells (vitamin D) is given as “about 100 nM”.
